Measurements taken from patent publication US20230099441A1, “HETEROCYCLIC COMPOUND, APPLICATION THEREOF, AND COMPOSITION CONTAINING SAME” (GenEros Biopharma Ltd., priority 2019, published 2023).

Tested on: STAT5 Y694 phosphorylation
Test: Protein electrophoresis and blotting of STAT5 Y694 phosphorylation in Jurkat cells stimulated with human interferon beta
Type: cell-based
Settings: for Inhibiting Ratio (0% for vehicle control): 1 hour pretreatment, 20 ng/ml human interferon beta 30 minutes, pSTAT5/GAPDH; for Example of Effect 1: Inhibiting Ability (Protein Electrophoresis and Blotting): observed pSTAT5 bands at 10 μM and 100 μM
Procedure: Example of Effect 1: Protein Electrophoresis and Blotting Experiment
Standard protein electrophoresis and chemiluminescence imaging equipment (Bio-Rad);
Protein lysate RIPA (Lianke Biological; Cat #WB020); Western blot transfer membrane PVDF (Millipore; Cat #IPVH00010);
Jurkat cells (ATCC American Standard Culture Center, TIB152) were cultured in a 6-well plate at a density of 1×10^6/ml with RPMI medium […] 10% fetal bovine serum in a humidified incubator at 37° C. and maintained at 5% carbon dioxide overnight. On the second day, the cells were pretreated with compounds of different concentrations (the mother liquor of the compound prepared by dimethyl sulfoxide was diluted in the medium at the required concentration) for 1 hour, and then stimulated with 20 ng/ml human interferon beta for 30 minutes, it was mixed thoroughly and then placed in an incubator at 37° C. environment. […] Then an appropriate volume of RIPA Lysis Solution was added, it was mixed well, and placed on ice for 1 hour, inverted and mixed several times in the middle. Then, the cell lysate was centrifuged at 12000 rpm at 4° C. for 10 minutes, and the supernatant was transferred to another test tube, aliquoted and stored at −20° C. until use.
An equal volume of protein lysate was mixed with an appropriate 6-fold protein loading buffer (Biyun Tian Biochemical Company P0015F), and the mixture was heated at 95 degrees for 10 minutes, after full denaturation, the protein sample was added to the polyacrylamide gel (self-made, raw material purchased from Soleibao Biotechnology Company A1010, 30% acrylamide solution), and electrophoresis was performed at the appropriate voltage for 1 hour, until the strips were fully separated. It was transferred to a polyvinylidene fluoride membrane according to standard procedures, and blocked with 5% skim milk for 1 hour, and the specified antibody was added, and it was diluted 1:1000 in 3% bovine serum albumin, and it was incubated overnight for four degrees. It was thoroughly rinsed, incubated with the secondary antibody, exposed to chemiluminescence and signals were collected. ImageJ software was used to quantify the obtained chemiluminescence results. The same area was selected, the gray values of STAT5 phosphorylation band and GAPDH band of each sample were analyzed, and the ratio of pSTAT5/GAPDH level was calculated. The value of the solvent-treated sample was 100%, and the remaining samples were converted into relative data in the same proportion, that is, the percentage corresponding to the solvent sample. […] The solvent control group was the same as the test compound group except that DMSO was used instead of the DMSO solution of the test compound. N1 (Pimozide) was a specific positive control.

| SMILES | Inhibiting Ratio (0% for vehicle control) (1 μM) [%] | Inhibiting Ratio (0% for vehicle control) (10 μM) [%] | Inhibiting Ratio (0% for vehicle control) (100 μM) [%] | Example of Effect 1: Inhibiting Ability (Protein Electrophoresis and Blotting) |
| --- | --- | --- | --- | --- |
| O=C(Cc1ccc(C(F)(F)F)cc1)N1CCC(n2c(=O)[nH]c3cc(C(F)(F)F)ccc32)CC1 [GEN1-005, 5-(trifluoromethyl)-1-(1-(2-(4-(trifluoromethyl)phenyl)acetyl)piperidin-4-yl)-1H-benzo[d]imidazole-2(3H)-one] | 28.0 | 44.4 | 95.6 | + |
| N#Cc1ccc2c(c1)[nH]c(=O)n2C1CCN(C(=O)Cc2ccc(C(F)(F)F)cc2)CC1 [GEN1-006, 2-oxo-1-(1-(2-(4-(trifluoromethyl)phenyl)acetyl)piperidin-4-yl)-2,3-dihydro-1H-benzo[d]imidazole-5-carbonitrile] | −2.8 | 35.7 | 94.8 | + |
| COc1ccc2c(c1)[nH]c(=O)n2C1CCN(C(=O)Cc2ccc(C(F)(F)F)cc2)CC1 [GEN1-007, 5-methoxy-1-(1-(2-(4-(trifluoromethyl)phenyl)acetyl)piperidin-4-yl)-1H-benzo[d]imidazole-2(3H)-one] | 42.4 | 54.8 | 96.6 | + |
| O=C(Cc1ccc(C(F)(F)F)cc1)N1CCC(n2c(=O)[nH]c3ccc(C(F)(F)F)cc32)CC1 [GEN1-009, 6-(trifluoromethyl)-1-(1-(2-(4-(trifluoromethyl)phenyl)acetyl)piperidin-4-yl)-1H-benzo[d]imidazole-2(3H)-one] |  |  |  | + |
| N#Cc1ccc2[nH]c(=O)n(C3CCN(C(=O)Cc4ccc(C(F)(F)F)cc4)CC3)c2c1 [GEN1-010, 2-oxo-3-(1-(2-(4-(trifluoromethyl)phenyl)acetyl)piperidin-4-yl)-2,3-dihydro-1H-benzo[d]imidazole-5-carbonitrile] | −29.0 | 17.5 | 94.8 | + |
| O=C(Cc1ccc(C(F)(F)F)cc1)N1CCC(n2c(=O)[nH]c3ccc(O)cc32)CC1 [GEN1-012, 6-hydroxy-1-(1-(2-(4-(trifluoromethyl)phenyl)acetyl)piperidin-4-yl)-1H-benzo[d]imidazole-2 (3H)-one] |  |  |  | + |
| COc1cccc2[nH]c(=O)n(C3CCN(C(=O)Cc4ccc(C(F)(F)F)cc4)CC3)c12 [GEN1-015, 7-methoxy-1-(1-(2-(4-(trifluoromethyl)phenyl)acetyl)piperidin-4-yl)-1H-benzo[d]imidazole-2(3H)-one] | 9.7 | 43.4 | 95.7 | + |
| O=C(c1ccc(C(F)(F)F)cc1)N1CCC(n2c(=O)[nH]c3ccccc32)CC1 [GEN1-017, 1-(1-(4-(trifluoromethyl)benzoyl)piperidin-4-yl)-1H-benzo[d]imidazole-2(3H)-one] |  |  |  | − |
| O=C(CCc1ccc(C(F)(F)F)cc1)N1CCC(n2c(=O)[nH]c3ccccc32)CC1 [GEN1-018, 1-(1-(3-(4-(trifluoromethyl)phenyl)propionyl)piperidin-4-yl)-1H-benzo[d]imidazole-2(3H)-one] | −36.5 | −6.2 | 98.6 | + |
| O=C(Cc1ccc(C(F)(F)F)cc1)N[C@H]1CC[C@@H](n2c(=O)[nH]c3ccccc32)CC1 [GEN1-021, Cis-N-(4-(2-oxo-2,3-dihydro-1H-benzo[d]imidazol-1-yl)cyclohexyl)-2-(4-(trifluoromethyl)phenyl)acetamide] | −39.8 | −26.3 | 97.6 | + |
